Laboratory results published in ChEMBL document CHEMBL4304741, “Modification and Biological Evaluation of a Series of 1,5-Diaryl-1,2,4-triazole Compounds as Novel Agents against Pancreatic Cancer Metastasis through Targeting Myoferlin” (J Med Chem, 2019).
Active and inactive are the calls of the source. The rule behind the calls is not given here.

Legend:
[1] = Toxicity in Balb/c nude mouse xenografted with PANC1 cells assessed as body weight loss at 25 to 50 mg/kg/day, ip; format: organism-based; details: in vivo
MCF-10A = assay: Cytotoxicity against human MCF10A cells assessed as reduction in cell viability measured after 48 hrs by MTS assay; format: cell-based
PANC-1 [2] = assay: (§1) Antimetastatic activity against human PANC1 cells harboring luciferase reporter gene xenografted in Balb/c nude mouse assessed as reduction in lung metastasis burden by measuring reduction in luminescence at 25 mg/kg/day, ip measured every 10 days by bioluminescence imaging analysis relative to control; format: functional
PANC-1 [3] = assay: Antimetastatic activity against human PANC1 cells harboring luciferase reporter gene xenografted in Balb/c nude mouse administered intraperitoneally once daily measured every 10 days by bioluminescence imaging analysis; format: functional, cell-based
PANC-1 [4] = assay: Effect on fibronectin expression in MYOF-knockout human PANC1 cells up to 400 nM by Western blot analysis; format: functional, cell-based
Myoferlin [5] = target: T1, Myoferlin (Homo sapiens, UniProt Q9NZM1); assay: Inhibition of MYOF in human PANC1 cells assessed as reduction in VEGFR2 level by Western blot analysis; format: cell-based
T1 sequence (Q9NZM1 whole entry): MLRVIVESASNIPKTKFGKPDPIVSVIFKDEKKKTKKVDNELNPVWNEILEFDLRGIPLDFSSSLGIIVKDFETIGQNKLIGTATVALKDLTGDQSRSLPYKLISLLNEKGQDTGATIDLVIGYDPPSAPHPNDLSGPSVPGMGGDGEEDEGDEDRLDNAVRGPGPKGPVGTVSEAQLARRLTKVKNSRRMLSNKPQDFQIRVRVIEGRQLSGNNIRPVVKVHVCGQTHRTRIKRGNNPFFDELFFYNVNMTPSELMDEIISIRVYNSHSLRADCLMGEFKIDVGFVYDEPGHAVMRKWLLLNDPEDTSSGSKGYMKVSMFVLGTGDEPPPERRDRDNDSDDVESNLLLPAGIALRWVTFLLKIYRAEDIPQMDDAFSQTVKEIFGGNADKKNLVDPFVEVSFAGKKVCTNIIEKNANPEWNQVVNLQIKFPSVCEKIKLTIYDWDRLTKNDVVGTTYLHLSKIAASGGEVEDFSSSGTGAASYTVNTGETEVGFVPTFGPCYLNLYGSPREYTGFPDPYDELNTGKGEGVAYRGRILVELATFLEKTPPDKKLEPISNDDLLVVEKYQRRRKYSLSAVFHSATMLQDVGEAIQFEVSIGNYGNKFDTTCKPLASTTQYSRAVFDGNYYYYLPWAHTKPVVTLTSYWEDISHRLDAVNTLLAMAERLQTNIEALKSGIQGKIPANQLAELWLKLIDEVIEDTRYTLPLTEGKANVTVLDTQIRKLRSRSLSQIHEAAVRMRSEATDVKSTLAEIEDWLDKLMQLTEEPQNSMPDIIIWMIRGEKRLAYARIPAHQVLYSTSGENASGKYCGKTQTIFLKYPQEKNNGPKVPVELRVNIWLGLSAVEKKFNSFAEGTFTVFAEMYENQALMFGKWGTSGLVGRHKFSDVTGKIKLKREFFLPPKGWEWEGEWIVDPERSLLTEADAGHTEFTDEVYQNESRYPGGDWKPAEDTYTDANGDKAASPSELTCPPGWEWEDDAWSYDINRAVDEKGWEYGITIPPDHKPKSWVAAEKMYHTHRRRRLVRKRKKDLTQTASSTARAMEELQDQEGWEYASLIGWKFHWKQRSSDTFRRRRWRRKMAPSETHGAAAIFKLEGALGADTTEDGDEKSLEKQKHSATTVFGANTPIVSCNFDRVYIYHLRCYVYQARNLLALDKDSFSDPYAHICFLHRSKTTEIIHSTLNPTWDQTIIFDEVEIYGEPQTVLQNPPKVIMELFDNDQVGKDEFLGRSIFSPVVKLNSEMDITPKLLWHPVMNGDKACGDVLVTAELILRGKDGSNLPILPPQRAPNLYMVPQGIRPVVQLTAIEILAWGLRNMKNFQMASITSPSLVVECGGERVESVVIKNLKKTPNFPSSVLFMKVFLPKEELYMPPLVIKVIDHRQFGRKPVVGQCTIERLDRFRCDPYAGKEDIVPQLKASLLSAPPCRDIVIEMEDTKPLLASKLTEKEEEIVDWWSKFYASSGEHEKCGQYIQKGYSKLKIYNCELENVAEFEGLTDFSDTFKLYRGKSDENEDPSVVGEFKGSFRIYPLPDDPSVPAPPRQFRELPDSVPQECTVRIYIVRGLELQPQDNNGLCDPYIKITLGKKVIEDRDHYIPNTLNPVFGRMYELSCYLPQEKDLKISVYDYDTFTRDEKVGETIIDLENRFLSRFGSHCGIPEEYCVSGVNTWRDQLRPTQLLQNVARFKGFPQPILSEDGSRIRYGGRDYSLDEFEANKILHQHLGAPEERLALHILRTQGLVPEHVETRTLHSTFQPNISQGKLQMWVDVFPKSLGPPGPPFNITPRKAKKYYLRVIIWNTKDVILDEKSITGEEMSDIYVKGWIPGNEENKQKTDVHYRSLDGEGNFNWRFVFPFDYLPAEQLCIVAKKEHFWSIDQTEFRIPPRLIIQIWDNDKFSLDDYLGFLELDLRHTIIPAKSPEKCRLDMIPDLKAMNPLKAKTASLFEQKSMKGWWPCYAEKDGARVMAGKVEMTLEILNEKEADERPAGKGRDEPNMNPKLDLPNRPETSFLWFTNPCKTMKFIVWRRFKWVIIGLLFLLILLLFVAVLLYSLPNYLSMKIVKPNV

PANC-1 [6] = assay: as §1, with “50” for “25”; format: functional
PANC-1 [7] = assay: Effect on myosin 2A expression in human PANC1 cells up to 400 nM by Western blot analysis; format: functional, cell-based
PANC-1 [8] = assay: Effect on EGFR expression in MYOF-knockout human PANC1 cells up to 400 nM by Western blot analysis; format: functional, cell-based
Myoferlin [9] = target: T1, Myoferlin; assay: Inhibition of MYOF in human PANC1 cells assessed as reversal of epithelial-mesenchymal transition by measuring up regulation of E-cadherin expression up to 400 nM by Western blot analysis; format: cell-based
[10] = target: Epidermal growth factor receptor (Homo sapiens) (UniProt P00533); assay: Effect on EGF-stimulated EGFR phosphorylation in MYOF-knockout human PANC1 cells at 400 nM by Western blot analysis
Chain of Epidermal growth factor receptor (Homo sapiens) (P00533 whole entry): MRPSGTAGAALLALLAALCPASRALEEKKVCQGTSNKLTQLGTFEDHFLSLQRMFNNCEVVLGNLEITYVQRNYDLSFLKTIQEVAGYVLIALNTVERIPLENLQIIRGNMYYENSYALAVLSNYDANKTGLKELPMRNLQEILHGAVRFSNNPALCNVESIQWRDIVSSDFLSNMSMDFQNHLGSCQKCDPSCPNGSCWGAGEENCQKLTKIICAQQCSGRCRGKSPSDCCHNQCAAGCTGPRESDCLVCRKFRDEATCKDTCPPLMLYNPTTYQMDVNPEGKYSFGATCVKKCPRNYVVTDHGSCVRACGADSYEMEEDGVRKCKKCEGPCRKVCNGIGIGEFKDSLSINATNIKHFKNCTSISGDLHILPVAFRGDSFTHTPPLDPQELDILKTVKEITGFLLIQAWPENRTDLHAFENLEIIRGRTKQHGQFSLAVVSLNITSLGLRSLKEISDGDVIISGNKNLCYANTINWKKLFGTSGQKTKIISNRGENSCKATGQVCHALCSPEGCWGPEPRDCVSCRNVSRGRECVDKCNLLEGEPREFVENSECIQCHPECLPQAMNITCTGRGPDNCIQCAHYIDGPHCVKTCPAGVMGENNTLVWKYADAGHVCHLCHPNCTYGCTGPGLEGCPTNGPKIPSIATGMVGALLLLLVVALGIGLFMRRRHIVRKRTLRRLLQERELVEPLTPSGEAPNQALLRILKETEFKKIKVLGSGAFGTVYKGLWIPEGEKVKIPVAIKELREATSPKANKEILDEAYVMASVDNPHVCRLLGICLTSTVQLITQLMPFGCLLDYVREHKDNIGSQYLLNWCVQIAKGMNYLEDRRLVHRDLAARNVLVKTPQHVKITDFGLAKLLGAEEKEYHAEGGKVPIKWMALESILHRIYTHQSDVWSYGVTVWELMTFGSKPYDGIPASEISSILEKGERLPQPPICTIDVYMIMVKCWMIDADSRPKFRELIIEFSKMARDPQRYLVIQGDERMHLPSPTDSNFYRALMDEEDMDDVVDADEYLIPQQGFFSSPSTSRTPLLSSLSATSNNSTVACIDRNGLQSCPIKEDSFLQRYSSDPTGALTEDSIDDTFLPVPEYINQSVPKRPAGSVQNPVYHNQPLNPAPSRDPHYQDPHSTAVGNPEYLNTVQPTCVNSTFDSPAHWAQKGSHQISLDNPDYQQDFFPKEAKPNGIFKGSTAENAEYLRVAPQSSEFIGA

Cytochrome P450 2B6 = target: T2, Cytochrome P450 2B6 (Homo sapiens, UniProt P20813); assay: Inhibition of CYP2B6 in human liver microsomes using bupropion as substrate preincubated for 5 mins followed by NADPH-generating system addition and measured after 20 mins by LC-MS/MS analysis
T2 sequence (P20813 whole entry): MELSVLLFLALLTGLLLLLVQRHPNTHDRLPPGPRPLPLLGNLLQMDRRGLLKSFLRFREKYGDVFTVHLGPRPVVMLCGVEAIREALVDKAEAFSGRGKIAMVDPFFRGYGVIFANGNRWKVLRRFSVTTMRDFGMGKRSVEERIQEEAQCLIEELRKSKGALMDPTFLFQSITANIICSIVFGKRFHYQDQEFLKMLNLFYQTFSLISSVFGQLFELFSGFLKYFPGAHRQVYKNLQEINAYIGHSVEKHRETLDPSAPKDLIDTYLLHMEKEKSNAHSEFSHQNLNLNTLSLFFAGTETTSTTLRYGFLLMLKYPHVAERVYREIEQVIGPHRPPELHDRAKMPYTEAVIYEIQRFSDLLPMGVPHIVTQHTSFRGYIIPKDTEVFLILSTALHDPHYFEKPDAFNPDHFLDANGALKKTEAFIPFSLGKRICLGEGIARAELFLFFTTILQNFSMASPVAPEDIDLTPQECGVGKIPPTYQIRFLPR

PANC-1 [11] = assay: Effect on E-cadherin expression in MYOF-knockout human PANC1 cells up to 400 nM by Western blot analysis; format: functional, cell-based
PANC-1 [12] = assay: Antimigratory activity against human PANC1 cells measured after 18 hrs in presence of mitomycin C using crystal violet staining by inverted microscopy-based transwell assay; format: functional, cell-based
[13] = Toxicity in Balb/c nude mouse xenografted with PANC1 cells assessed as pathological changes in liver at 25 to 50 mg/kg/day, ip by H and E staining-based microscopic analysis; format: organism-based; details: in vivo
PANC-1 [14] = assay: Effect on MMP1 secretion in MYOF-knockout human PANC1 cells up to 400 nM by Western blot analysis; format: functional, cell-based
PANC-1 [15] = assay: Effect on Twist1 expression in human PANC1 cells up to 400 nM by Western blot analysis; format: functional, cell-based
PANC-1 [16] = assay: Cytotoxicity against human PANC1 cells assessed as reduction in cell viability measured after 48 hrs by MTS assay; format: cell-based; details: PANC-1, 48 h
Capan-2 = assay: Antimigratory activity against human Capan2 cells measured after 36 hrs in presence of mitomycin C using crystal violet staining by inverted microscopy-based transwell assay; format: functional, cell-based
PANC-1 [17] = assay: Antimetastatic activity against human PANC1 cells harboring luciferase reporter gene xenografted in Balb/c nude mouse assessed as mouse survival at 25 mg/kg/day, ip (reference value: 25%); format: functional; details: PANC-1, ip
[18] = Toxicity in Balb/c nude mouse xenografted with PANC1 cells assessed as pathological changes in heart at 25 to 50 mg/kg/day, ip by H and E staining-based microscopic analysis; format: organism-based; details: in vivo
[19] = Toxicity in Balb/c nude mouse xenografted with PANC1 cells assessed as pathological changes in kidney at 25 to 50 mg/kg/day, ip by H and E staining-based microscopic analysis; format: organism-based; details: in vivo
Myoferlin [20] = target: T1, Myoferlin; assay: Inhibition of MYOF in human PANC1 cells assessed as reduction in MMP1 secretion measured after 24 hrs by SDS-PAGE analysis; format: cell-based
MIA PaCa-2 = assay: Antimigratory activity against human MIAPaCa2 cells measured after 24 hrs in presence of mitomycin C using crystal violet staining by inverted microscopy-based transwell assay; format: functional, cell-based
Myoferlin [21] = target: T1, Myoferlin; assay: Binding affinity to recombinant human GST-tagged MYOF C2 domain (3445 to 3912 residues) expressed in Escherichia coli BL21 (DE3) at 145 uM by STD-NMR analysis
Cytochrome P450 1A2 = target: T3, Cytochrome P450 1A2 (Homo sapiens, UniProt P05177); assay: Inhibition of CYP1A2 in human liver microsomes using phenacetin as substrate preincubated for 5 mins followed by NADPH-generating system addition and measured after 20 mins by LC-MS/MS analysis
T3 sequence (P05177 whole entry): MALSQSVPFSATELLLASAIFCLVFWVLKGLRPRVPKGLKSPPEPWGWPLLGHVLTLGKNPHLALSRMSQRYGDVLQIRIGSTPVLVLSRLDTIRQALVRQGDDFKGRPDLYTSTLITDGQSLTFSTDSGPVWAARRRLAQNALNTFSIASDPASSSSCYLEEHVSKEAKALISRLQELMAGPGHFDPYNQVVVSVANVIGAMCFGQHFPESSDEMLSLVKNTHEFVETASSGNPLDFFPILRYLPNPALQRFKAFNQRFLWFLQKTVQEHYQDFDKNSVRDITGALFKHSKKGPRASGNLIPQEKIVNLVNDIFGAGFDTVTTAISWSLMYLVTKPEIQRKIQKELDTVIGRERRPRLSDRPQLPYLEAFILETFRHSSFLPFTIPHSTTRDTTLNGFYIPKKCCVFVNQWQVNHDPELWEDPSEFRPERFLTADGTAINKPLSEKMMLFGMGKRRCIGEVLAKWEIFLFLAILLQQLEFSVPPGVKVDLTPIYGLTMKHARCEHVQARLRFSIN

Myoferlin [22] = target: T1, Myoferlin; assay: Inhibition of MYOF in human PANC1 cells assessed as reduction in MMP2 secretion measured after 24 hrs by SDS-PAGE analysis; format: cell-based

**Q.** Which Activity [1] does the source give for CCc1nc(-c2ncc(OC)cn2)n(-c2cccc(C(=O)NCCCCc3ccccc3)c2)n1 here?
**A.** Its Activity is “Non-Toxic”.

**Q.** What about the IC50 (MCF-10A) of the same molecule?
**A.** Its IC50 is 27.6 µM.

**Q.** And the “fold change (FC)” value (PANC-1 [2])?
**A.** Its value is 3.

**Q.** And the Activity (PANC-1 [3])?
**A.** The Activity was “Dose-dependent effect”.

**Q.** And the Activity (PANC-1 [4])?
**A.** Its Activity is “inactive”.

**Q.** And the inhibition (Myoferlin [5])?
**A.** The inhibition was “Dose-dependent effect”.

**Q.** And the “fold change (FC)” value (PANC-1 [6])?
**A.** The value was 5.

**Q.** And the Activity (PANC-1 [7])?
**A.** The Activity was “inactive”.

**Q.** What about the Activity (PANC-1 [8]) of the same molecule?
**A.** Its Activity is “inactive”.

**Q.** And the inhibition (Myoferlin [9])?
**A.** The inhibition was “Active”.

**Q.** What about the Activity [10] of the same molecule?
**A.** The Activity was “inactive”.

**Q.** And the IC50 (Cytochrome P450 2B6)?
**A.** Its IC50 is > 50 µM.

**Q.** And the Activity (PANC-1 [11])?
**A.** Its Activity is “inactive”.

**Q.** What about the Activity (PANC-1 [12]) of the same molecule?
**A.** Its Activity is “Dose-dependent effect”.

**Q.** What about the IC50 (PANC-1 [12]; PANC-1, 18 h) of the same molecule?
**A.** The IC50 was 0.11 µM.

**Q.** And the Activity [13]?
**A.** The Activity was “Non-Toxic”.

**Q.** And the Activity (PANC-1 [14])?
**A.** Its Activity is “inactive”.

**Q.** What about the Activity (PANC-1 [15]) of the same molecule?
**A.** Its Activity is “inactive”.

**Q.** And the IC50 (PANC-1 [16])?
**A.** Its IC50 is 0.84 µM.

**Q.** What about the Activity (Capan-2) of the same molecule?
**A.** The Activity was “Dose-dependent effect”.

**Q.** What about the survival at 25 mg/kg/day (PANC-1 [17]) of the same molecule?
**A.** Its survival at 25 mg/kg/day is 75%.

**Q.** What about the Activity [18] of the same molecule?
**A.** Its Activity is “Non-Toxic”.

**Q.** And the Activity [19]?
**A.** Its Activity is “Non-Toxic”.

**Q.** And the inhibition (Myoferlin [20])?
**A.** Its inhibition is “Dose-dependent effect”.

**Q.** What about the Activity (MIA PaCa-2) of the same molecule?
**A.** Its Activity is “Dose-dependent effect”.

**Q.** And the Activity (Myoferlin [21])?
**A.** The Activity was “Active”.

**Q.** And the IC50 (Cytochrome P450 1A2)?
**A.** The IC50 was > 50 µM.

**Q.** And the inhibition (Myoferlin [22])?
**A.** Its inhibition is “Dose-dependent effect”.
